Test results from patent US4647408A, “Carbapenem-type antibiotics” (Shionogi & Co., Ltd., priority 1983, dated 1987).
In brackets after ≈: the same amount, converted by molar mass.

Assays:
β-lactamase = β-lactamase inhibitory activity (general statement); assay type: biochemical; conditions: statement in words
Excerpt: (§1) Results of the tests on the antimicrobial activities and β-lactamase inhibitory activities are summarized as follows.
(§2) The β-lactamase inhibitory activity is expressed as a minimum concentration (μg/ml) of the test compound which is required to inhibit the hydrolysis of the substrate by β-lactamase. The supernatant, which has been obtained by means of breaking the washed cells of the β-lactamase-producing microorganisms in a buffer with ultrasonic waves and then centrifuging the consequent cell-free extract, is employed as a standard β-lactamase.
(§3) A test compound is successively diluted with a buffer (pH 7.0) by a two-fold dilution method, the standard β-lactamase in added to each of the diluted solutions, then the mixture is allowed to stand for 10 minutes, and an indicator is added therein. The minimum inhibitory concentration at which no color is developed after observation for 20 minutes, is determined.

[1] = target: T1, β-lactamase (cephalosporinase type) of Enterobacter cloacae 92 (Enterobacter cloacae, UniProt P05364); test: β-lactamase inhibitory activity, inhibition of hydrolysis of the substrate; assay type: biochemical; conditions: β-lactamase of Enterobacter cloacae 92, cephalosporinase type; pH 7.0, 10 min preincubation, read after 20 min
T1 construct: supernatant of sonicated, washed cells of the producing strain (crude cell-free extract)
T1 sequence (P05364 21-381): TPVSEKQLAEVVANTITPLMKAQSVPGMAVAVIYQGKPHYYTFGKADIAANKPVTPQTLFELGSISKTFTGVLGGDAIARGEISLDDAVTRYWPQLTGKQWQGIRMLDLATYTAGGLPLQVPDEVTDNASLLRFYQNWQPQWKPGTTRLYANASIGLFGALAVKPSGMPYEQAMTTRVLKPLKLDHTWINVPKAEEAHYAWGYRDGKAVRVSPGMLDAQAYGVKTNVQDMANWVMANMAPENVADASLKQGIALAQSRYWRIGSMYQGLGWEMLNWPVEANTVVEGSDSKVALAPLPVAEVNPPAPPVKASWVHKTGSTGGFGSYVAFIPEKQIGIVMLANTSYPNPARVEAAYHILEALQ
Excerpt: (§4) (2) Test on the β-lactamase inhibitory activity:
as §2, §3
*^1 Producing cephalosporinasetype lactamase

[2] = system: Klebsiella pneumoniae SRL-1; test: Antimicrobial activity, agar dilution method; assay type: cell-based; conditions: SRL1, inoculum 10^6 cells/ml, sensitivity disc agar, 37° C. overnight, read-out: Minimum Inhibitory Concentration
Description: (§5) (1) Antimicrobial Activity:
(§6) Test microorganism Concentration (μg/ml)
(§7) Determined by agar dilution method: Inoculum size 10^6 cells/ml,
(§8) Cultivation on a sensitivitydisc agar medium at 37° C. overnight.

Klebsiella sp. 363(R) = test: Antimicrobial activity, agar dilution method; assay type: cell-based; conditions: inoculum 10^6 cells/ml, sensitivity disc agar, 37° C. overnight, read-out: Minimum Inhibitory Concentration
Description: as §5, §6, §7, §8

Proteus mirabilis PR-4 = test: Antimicrobial activity, agar dilution method; assay type: cell-based; conditions: PR4, inoculum 10^6 cells/ml, sensitivity disc agar, 37° C. overnight, read-out: Minimum Inhibitory Concentration
Description: as §5, §6, §7, §8

[3] = system: Escherichia coli NIHJ JC-2; test: Antimicrobial activity, agar dilution method; assay type: cell-based; conditions: NIHJJC2, inoculum 10^6 cells/ml, sensitivity disc agar, 37° C. overnight, read-out: Minimum Inhibitory Concentration
Description: as §5, §6, §7, §8

[4] = system: Streptococcus pneumoniae I; test: Antimicrobial activity, agar dilution method; assay type: cell-based; conditions: inoculum 10^6 cells/ml, sensitivity disc agar, 37° C. overnight, read-out: Minimum Inhibitory Concentration
Description: as §5, §6, §7, §8

[5] = system: Pseudomonas aeruginosa ATCC 25619; test: Antimicrobial activity, agar dilution method; assay type: cell-based; conditions: ATCC25619, inoculum 10^6 cells/ml, sensitivity disc agar, 37° C. overnight, read-out: Minimum Inhibitory Concentration
Description: as §5, §6, §7, §8

Enterobacter cloacae 233 = test: Antimicrobial activity, agar dilution method; assay type: cell-based; conditions: inoculum 10^6 cells/ml, sensitivity disc agar, 37° C. overnight, read-out: Minimum Inhibitory Concentration
Description: as §5, §6, §7, §8

[6] = system: Staphylococcus aureus 209P JC-1; test: Antimicrobial activity, agar dilution method; assay type: cell-based; conditions: inoculum 10^6 cells/ml, sensitivity disc agar, 37° C. overnight, read-out: Minimum Inhibitory Concentration
Description: as §5, §6, §7, §8

[7] = system: Gram-positive and Gram-negative microorganisms; test: Antimicrobial activity (general statement); assay type: cell-based; conditions: statement in words
Excerpt: as §1

[8] = system: β-lactamase (penicillinase type) of Klebsiella sp. 363; test: β-lactamase inhibitory activity, inhibition of hydrolysis of the substrate; assay type: biochemical; conditions: β-lactamase of Klebsiella sp. 363, penicillinase type; pH 7.0, 10 min preincubation, read after 20 min
Excerpt: as §4, §2, §3
*^2 Producing penicillinasetype lactamase

| Compound | β-lactamase inhibitory activities (β-lactamase) | Minimum Inhibitory Concentration (inhibition of substrate hydrolysis by β-lactamase) [1] [µg/mL] | MIC [2] [µg/mL] | MIC (Klebsiella sp. 363(R)) [µg/mL] | MIC (Proteus mirabilis PR-4) [µg/mL] | MIC [3] [µg/mL] | MIC [4] [µg/mL] | MIC [5] [µg/mL] | MIC (Enterobacter cloacae 233) [µg/mL] | MIC [6] [µg/mL] | antimicrobial activities [7] | Minimum Inhibitory Concentration (inhibition of substrate hydrolysis by β-lactamase) [8] [µg/mL] |
| --- | --- | --- | --- | --- | --- | --- | --- | --- | --- | --- | --- | --- |
| C[C@H](OS(=O)(=O)O)[C@@H]1C(=O)N2C(C(=O)O)=C(S(=O)O)C[C@H]12 [PA-41746-A2] | excellent β-lactamase inhibitory activities | 0.008 | 1.56 (≈ 4.57 µM) | 1.56 (≈ 4.57 µM) | 3.13 (≈ 9.17 µM) | 1.56 (≈ 4.57 µM) | 1.56 (≈ 4.57 µM) | > 100 | 6.25 (≈ 18.3 µM) | 12.5 (≈ 36.6 µM) | antimicrobial activities against Gram-positive and Gram-negative microorganisms | 1.0 |
| C[C@H](OS(=O)(=O)O)[C@@H]1C(=O)N2C(C(=O)O)=C([S@+]([O-])CCO)C[C@H]12 [PA-41746-E] | excellent β-lactamase inhibitory activities | 0.016 |  |  |  |  |  |  |  |  | antimicrobial activities against Gram-positive and Gram-negative microorganisms | 0.008 |
| CC(=O)NCC[S@@+]([O-])C1=C(C(=O)O)N2C(=O)[C@@H]([C@H](C)OS(=O)(=O)O)[C@H]2C1 [PA-41746-F] | excellent β-lactamase inhibitory activities | 0.002 |  |  |  |  |  |  |  |  | antimicrobial activities against Gram-positive and Gram-negative microorganisms | 0.002 |
